According to patent publication US9522888B2, “Substituted bicyclic compounds” (BRISTOL-MYERS SQUIBB COMPANY, priority 2014, dated 2016):

Tests used:
[1] = biological target: human S1P1 (Homo sapiens (Human), UniProt P21453); test: S1P1 binding assay (33P-S1P radioligand competition, CHO cell membranes); conditions: phosphate examples; read-out: S1P1 Binding
Procedure, shortened: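 Radioligand is 33P-S1P, competing for membranes from human S1P1-expressing CHO cells. Membranes resuspended in 50 mM HEPES pH 7.5, 100 mM NaCl, 1 mM MgCl2, 2 mM EDTA.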

[2] = biological target: S1P1 (membranes prepared from S1P1/CHO cells) (Homo sapiens (Human), UniProt P21453); test: Receptor [35S] GTPγS binding assay (S1P1 GTPγS); type: biochemical; conditions: phosphate examples; read-out: S1P1 GTPγS
Procedure, shortened: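 Agonist-stimulated [35S]GTPγS binding (0.2 nM final) to S1P1/CHO membranes, 3 μg protein/well, measured after 45 min at room temperature. Buffer contained 10 μM GDP, saponin and fatty-acid-free BSA at pH 7.5. Compounds tested as 11-point 3-fold series; bound label captured on filters, scintillation-counted, EC50 reported.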

[3] = biological target: S1P3 (membranes prepared from EDG3-Gal5-bla HEK293T cells) (Homo sapiens (Human), UniProt Q99500); test: Receptor [35S] GTPγS binding assay (S1P3 GTPγS); type: biochemical; conditions: phosphate examples; read-out: S1P3 GTPγS
Procedure, shortened: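 Membranes (3 μg protein/well) from S1P1/CHO cells or EDG3-Gal5-bla HEK293T cells (S1P3) were incubated 45 min at room temperature with 0.2 nM final [35S]GTPγS in HEPES pH 7.5 buffer with 10 μM GDP, MgCl2 and saponin. Bound label counted after filtration; EC50 from 11-point, 3-fold dilutions.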

[4] = biological target: hS1P1/CHO cells (Homo sapiens (Human), UniProt P21453); test: hS1P1 ERK phosphorylation (S1P1 pERK); type: cell-based; conditions: phosphate examples
Procedure, shortened: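 Agonism read as ERK phosphorylation (SureFire pERK) in hS1P1/CHO lysates, normalised to the maximal effect of 10 μM S1P. Cells were held 2 h in serum-free medium, then treated with compound for 7 min at 37° C. in HBSS/20 mM HEPES.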

Chain of S1P3 (membranes prepared from EDG3-Gal5-bla HEK293T cells) (Q99500 whole entry): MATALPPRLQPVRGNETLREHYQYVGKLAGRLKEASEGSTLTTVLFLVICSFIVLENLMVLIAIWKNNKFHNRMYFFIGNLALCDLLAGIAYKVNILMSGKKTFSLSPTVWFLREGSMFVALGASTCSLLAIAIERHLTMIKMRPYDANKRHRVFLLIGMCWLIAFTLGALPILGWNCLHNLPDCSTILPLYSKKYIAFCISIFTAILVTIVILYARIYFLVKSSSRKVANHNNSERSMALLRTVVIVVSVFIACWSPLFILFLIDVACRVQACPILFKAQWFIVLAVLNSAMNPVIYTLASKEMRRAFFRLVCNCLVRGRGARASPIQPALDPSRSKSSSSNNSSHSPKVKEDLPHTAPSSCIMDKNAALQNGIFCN
Chain of S1P1 (membranes prepared from S1P1/CHO cells) (P21453 whole entry): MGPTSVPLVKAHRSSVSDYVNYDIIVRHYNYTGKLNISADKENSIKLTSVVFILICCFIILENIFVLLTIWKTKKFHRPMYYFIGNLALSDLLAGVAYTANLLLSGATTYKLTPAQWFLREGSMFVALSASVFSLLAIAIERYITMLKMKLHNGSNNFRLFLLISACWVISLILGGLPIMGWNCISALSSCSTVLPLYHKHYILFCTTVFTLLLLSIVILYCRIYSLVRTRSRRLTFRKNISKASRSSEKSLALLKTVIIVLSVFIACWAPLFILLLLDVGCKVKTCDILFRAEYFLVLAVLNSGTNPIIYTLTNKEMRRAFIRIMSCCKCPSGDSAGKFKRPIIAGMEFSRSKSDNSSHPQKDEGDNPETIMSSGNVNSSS
Chain of human S1P1 (P21453 whole entry): as above
Chain of hS1P1/CHO cells (P21453 whole entry): as above

`COCc1ccc(C[C@@H]2CCc3cc([C@H]4CC[C@](N)(COP(=O)(O)O)C4)ccc3C2)cc1` [compound 550] showed an IC50 [1] of 10 to 100 nM, an EC50 [2] of 10 to 100 nM and an EC50 [3] of over 625 nM. For the same molecule, the EC50 [4] was under 10 nM.

Work on `CCOc1cccc(C[C@@H]2CCc3cc([C@H]4CC[C@](N)(COP(=O)(O)O)C4)ccc3C2)c1` [compound 551] yielded an IC50 [1] of 10 to 100 nM, an EC50 [2] of 10 to 100 nM and an EC50 [3] of over 625 nM. The EC50 [4] was 10 to 100 nM.

`COCc1cccc(C[C@@H]2CCc3cc([C@H]4CC[C@](N)(COP(=O)(O)O)C4)ccc3C2)c1` [compound 552] showed an IC50 [1] of under 10 nM, an EC50 [2] of 10 to 100 nM and an EC50 [3] of over 625 nM. The EC50 [4] was 10 to 100 nM.

`COc1ccc(C[C@@H]2CCc3cc([C@H]4CC[C@](N)(COP(=O)(O)O)C4)ccc3C2)cc1OC` [compound 553] showed an IC50 [1] of 100 to 1000 nM, an EC50 [2] of 100 to 1000 nM and an EC50 [3] of over 625 nM. The EC50 [4] was under 10 nM.

For `C=CCCCC[C@@H]1CCc2cc([C@H]3CC[C@](N)(COP(=O)(O)O)C3)ccc2C1` [compound 555], the IC50 [1] was under 10 nM, the EC50 [2] was 10 to 100 nM and the EC50 [3] was over 625 nM. The EC50 [4] was 10 to 100 nM.

For `CC(C)=CCCC[C@@H]1CCc2cc([C@H]3CC[C@](N)(COP(=O)(O)O)C3)ccc2C1` [compound 556], the IC50 [1] was 1000 to 10000 nM, the EC50 [2] was under 10 nM and the EC50 [3] was over 625 nM. It also gave an EC50 [4] of under 10 nM.

`N[C@]1(COP(=O)(O)O)CC[C@H](c2ccc3c(c2)CC[C@@H](CCCC2CCOCC2)C3)C1` [compound 557] was tested, and the IC50 [1] was 10 to 100 nM, the EC50 [2] was 10 to 100 nM and the EC50 [3] was over 625 nM. For the same molecule, the EC50 [4] was 10 to 100 nM.

With `N[C@]1(COP(=O)(O)O)CC[C@H](c2ccc3c(c2)CC[C@@H](CCC2CCOCC2)C3)C1` [compound 558] the IC50 [1] was under 10 nM, the EC50 [2] was under 10 nM and the EC50 [3] was over 625 nM. For the same molecule, the EC50 [4] was under 10 nM.

Molecule `CC(C)Oc1ccc(C[C@@H]2CCc3cc([C@H]4CC[C@](N)(COP(=O)(O)O)C4)ccc3C2)cc1` [compound 559] has an IC50 [1] of 100 to 1000 nM, an EC50 [2] of 100 to 1000 nM and an EC50 [3] of over 625 nM. It also gave an EC50 [4] of 10 to 100 nM.

`CC(C)Oc1cccc(C[C@@H]2CCc3cc([C@H]4CC[C@](N)(COP(=O)(O)O)C4)ccc3C2)c1` [compound 560] gave an IC50 [1] of 10 to 100 nM, an EC50 [2] of under 10 nM and an EC50 [3] of over 625 nM. For the same molecule, the EC50 [4] was under 10 nM.

`CN(C)CCCCC[C@@H]1CCc2cc([C@H]3CC[C@](N)(COP(=O)(O)O)C3)ccc2C1` [compound 561] gave an IC50 [1] of 100 to 1000 nM, an EC50 [2] of 100 to 1000 nM and an EC50 [3] of over 625 nM. For the same molecule, the EC50 [4] was 10 to 100 nM.

For `CN(C)C(=O)Cc1ccc(C[C@@H]2CCc3cc([C@H]4CC[C@](N)(COP(=O)(O)O)C4)ccc3C2)cc1` [compound 562], the IC50 [1] was 100 to 1000 nM, the EC50 [2] was 100 to 1000 nM and the EC50 [3] was over 625 nM. For the same molecule, the EC50 [4] was 10 to 100 nM.

Molecule `COc1ccccc1CCC[C@@H]1CCc2cc([C@H]3CC[C@](N)(COP(=O)(O)O)C3)ccc2C1` [compound 563] has an IC50 [1] of 100 to 1000 nM, an EC50 [2] of 100 to 1000 nM and an EC50 [3] of over 625 nM. The EC50 [4] was 100 to 1000 nM.

In the case of `COc1cccc(CCC[C@@H]2CCc3cc([C@H]4CC[C@](N)(COP(=O)(O)O)C4)ccc3C2)c1` [compound 564], the IC50 [1] is reported as 10 to 100 nM, the EC50 [2] is reported as 10 to 100 nM and the EC50 [3] is reported as over 625 nM. It also gave an EC50 [4] of 10 to 100 nM.

Molecule `COc1cccc(C[C@H]2CCc3cc([C@H]4CC[C@](N)(COP(=O)(O)O)C4)ccc3C2)c1` [compound 567] has an IC50 [1] of under 10 nM, an EC50 [2] of under 10 nM and an EC50 [3] of over 625 nM. For the same molecule, the EC50 [4] was 10 to 100 nM.

With `COc1ccc(C[C@H]2CCc3cc([C@H]4CC[C@](N)(COP(=O)(O)O)C4)ccc3C2)cc1` [compound 568] the IC50 [1] was 10 to 100 nM, the EC50 [2] was under 10 nM and the EC50 [3] was over 625 nM. For the same molecule, the EC50 [4] was under 10 nM.

In the case of `N[C@]1(COP(=O)(O)O)CC[C@H](c2ccc3c(c2)CC[C@H](c2ccccc2)C3)C1` [compound 569], the IC50 [1] is reported as under 10 nM, the EC50 [2] is reported as 10 to 100 nM and the EC50 [3] is reported as over 625 nM. It also gave an EC50 [4] of under 10 nM.

`N[C@]1(COP(=O)(O)O)CC[C@H](c2ccc3c(c2)CC[C@@H](Cc2ccccc2)C3)C1` [compound 571] showed an IC50 [1] of 10 to 100 nM, an EC50 [2] of 10 to 100 nM and an EC50 [3] of over 625 nM. For the same molecule, the EC50 [4] was 10 to 100 nM.

`N[C@]1(COP(=O)(O)O)CC[C@H](c2ccc3c(c2)CC[C@H](Cc2ccccc2)C3)C1` [compound 572] gave an IC50 [1] of under 10 nM, an EC50 [2] of under 10 nM and an EC50 [3] of over 625 nM. The EC50 [4] was 10 to 100 nM.

Work on `N[C@]1(COP(=O)(O)O)CC[C@H](c2ccc3c(c2)CC[C@@H](CCc2ccccc2)C3)C1` [compound 573] yielded an IC50 [1] of 10 to 100 nM, an EC50 [2] of 10 to 100 nM and an EC50 [3] of over 625 nM. The EC50 [4] was 10 to 100 nM.

`CCCCCC1CCc2cc([C@H]3CC[C@](N)(COP(=O)(O)O)C3)ccc2C1` (stereo partly shown) [compound 575] gave an IC50 [1] of 10 to 100 nM, an EC50 [2] of 10 to 100 nM and an EC50 [3] of over 625 nM. It also gave an EC50 [4] of under 10 nM.

`CCCCCC1CCc2cc([C@H]3CC[C@](N)(COP(=O)(O)O)C3)ccc2C1` (stereo partly shown) [compound 576] gave an IC50 [1] of 10 to 100 nM, an EC50 [2] of 100 to 1000 nM and an EC50 [3] of over 625 nM. The EC50 [4] was 10 to 100 nM.

`CCCCC[C@@H]1CCc2cc([C@@H]3CC[C@@](N)(COP(=O)(O)O)C3)ccc2C1` [compound 577] gave an IC50 [1] of under 10 nM, an EC50 [2] of under 10 nM and an EC50 [3] of over 625 nM. It also gave an EC50 [4] of under 10 nM.

For `CCCCC[C@H]1CCc2cc([C@@H]3CC[C@@](N)(COP(=O)(O)O)C3)ccc2C1` [compound 578], the IC50 [1] was under 10 nM, the EC50 [2] was 10 to 100 nM and the EC50 [3] was over 625 nM. The EC50 [4] was under 10 nM.

For `C#CCCOCCO[C@H]1CCc2cc([C@@H]3CC[C@@](N)(COP(=O)(O)O)C3)ccc2C1` [compound 586], the IC50 [1] was under 10 nM, the EC50 [2] was 10 to 100 nM and the EC50 [3] was over 625 nM. The EC50 [4] was under 10 nM.

`CC(C)CCOCCO[C@H]1CCc2cc([C@H]3CC[C@](N)(COP(=O)(O)O)C3)ccc2C1` [compound 587] gave an IC50 [1] of under 10 nM, an EC50 [2] of 10 to 100 nM and an EC50 [3] of over 625 nM. It also gave an EC50 [4] of under 10 nM.

With `CCCCOCCO[C@H]1CCc2cc([C@@H]3CC[C@@](N)(COP(=O)(O)O)C3)ccc2C1` [compound 591] the IC50 [1] was 10 to 100 nM, the EC50 [2] was 10 to 100 nM and the EC50 [3] was over 625 nM. For the same molecule, the EC50 [4] was under 10 nM.

With `CCCCOCCO[C@@H]1CCc2cc([C@@H]3CC[C@@](N)(COP(=O)(O)O)C3)ccc2C1` [compound 592] the IC50 [1] was under 10 nM, the EC50 [2] was 10 to 100 nM and the EC50 [3] was over 625 nM. The EC50 [4] was under 10 nM.

In the case of `COc1ccc(CC[C@H]2CCc3cc([C@@H]4CC[C@@](N)(COP(=O)(O)O)C4)ccc3C2)cc1` [compound 594], the IC50 [1] is reported as 10 to 100 nM, the EC50 [2] is reported as 10 to 100 nM and the EC50 [3] is reported as over 625 nM. For the same molecule, the EC50 [4] was 100 to 1000 nM.

`COCCC[C@H]1CCc2cc([C@@H]3CC[C@@](N)(COP(=O)(O)O)C3)ccc2C1` [compound 595] gave an IC50 [1] of under 10 nM, an EC50 [2] of 10 to 100 nM and an EC50 [3] of over 625 nM. The EC50 [4] was under 10 nM.

In the case of `COCCCC[C@H]1CCc2cc([C@@H]3CC[C@@](N)(COP(=O)(O)O)C3)ccc2C1` [compound 596], the IC50 [1] is reported as under 10 nM, the EC50 [2] is reported as 10 to 100 nM and the EC50 [3] is reported as over 625 nM. For the same molecule, the EC50 [4] was under 10 nM.

`COCCCCC[C@H]1CCc2cc([C@@H]3CC[C@@](N)(COP(=O)(O)O)C3)ccc2C1` [compound 598] was tested, and the IC50 [1] was 10 to 100 nM, the EC50 [2] was 10 to 100 nM and the EC50 [3] was over 625 nM. The EC50 [4] was under 10 nM.

`CC(C)OCCC[C@H]1CCc2cc([C@@H]3CC[C@@](N)(COP(=O)(O)O)C3)ccc2C1` [compound 600] was tested, and the IC50 [1] was 10 to 100 nM, the EC50 [2] was under 10 nM and the EC50 [3] was over 625 nM. The EC50 [4] was under 10 nM.

`CC(C)OCCC[C@@H]1CCc2cc([C@@H]3CC[C@@](N)(COP(=O)(O)O)C3)ccc2C1` [compound 602] showed an IC50 [1] of under 10 nM, an EC50 [2] of under 10 nM and an EC50 [3] of over 625 nM. It also gave an EC50 [4] of under 10 nM.
